Laboratory results: patent US11252953B2, “Repellent and attractant composition for dichromatic animals” (The United States of America, Represented by the Secretary …, priority 2016, dated 2022)

Experiments:
ring-necked pheasants = conditions: in vivo; cited from earlier work
deer mice = assay: Deer mouse concentration-response feeding experiment; assay type: in vivo, Peromyscus maniculatus Wagner
Canada geese = conditions: range printed jointly for Canada geese and red-winged blackbirds; cited from earlier work
[1] = system: Richardson's ground squirrels; assay: Richardson's ground squirrel concentration-response feeding experiment; assay type: in vivo, Urocitellus richardsonii Sabine
cottontail rabbits = assay: Cottontail rabbit concentration-response feeding experiment; assay type: in vivo, Sylvilagus audubonii Baird
wild boar = conditions: corn treated with 0.64% anthraquinone; cited from earlier work
black rats = conditions: 0.1% and 0.25% anthraquinone; cited from earlier work
[2] = system: black-tailed prairie dogs; conditions: corn seeds treated with 0.5-4.0% anthraquinone; cited from earlier work
male house mice = conditions: wheat treated with 15% anthraquinone and chloroform; cited from earlier work
common grackles = conditions: in vivo; cited from earlier work
female common voles = conditions: wheat treated with 5% anthraquinone and chloroform; cited from earlier work
red-winged blackbirds = conditions: range printed jointly for Canada geese and red-winged blackbirds; cited from earlier work
possums [3] = conditions: 0.25% anthraquinone; cited from earlier work
California voles = assay: California vole concentration-response feeding experiment; assay type: in vivo, Microtus californicus Peale
brown rats = conditions: 0.04% and 0.08% anthraquinone; control baits 0.01-0.03% cinnamon, green carrots; cited from earlier work
male common voles = conditions: wheat treated with 15% anthraquinone and chloroform; cited from earlier work
possums [4] = conditions: 0.08% anthraquinone; cited from earlier work
American crows = conditions: in vivo; cited from earlier work

**Q.** Which predicted threshold concentration (ring-necked pheasants) does the source give for O=C1c2ccccc2C(=O)c2ccccc21 [anthraquinone, 9,10-anthraquinone] here?
**A.** 10,450 ppm

**Q.** What about the repellency (deer mice; whole oats treated with 0.25-2.0% anthraquinone (target; actual 2,820-19,900 ppm)) of the same compound?
**A.** 19-52%

**Q.** What about the repellency (deer mice; whole oats treated with 10,800 ppm anthraquinone) of the same compound?
**A.** 52%

**Q.** What about the predicted threshold concentration (Canada geese) of the same compound?
**A.** 1,450-1,475 ppm

**Q.** And the feeding repellency ([1]; whole oats treated with 0.5-2.0% anthraquinone (target; actual 5,380-18,500 ppm))?
**A.** 40-56%

**Q.** And the repellency ([1]; whole oats treated with 18,500 ppm anthraquinone)?
**A.** 56%

**Q.** And the “anthraquinone dosage for observed threshold repellency” value (cottontail rabbits)?
**A.** 149.9±28.1 mg anthraquinone/kg BM

**Q.** What about the repellency (cottontail rabbits; oats treated with 4,790 ppm anthraquinone) of the same compound?
**A.** 68%

**Q.** What about the repellency (cottontail rabbits; oats treated with 10,300 ppm anthraquinone) of the same compound?
**A.** 75%

**Q.** What about the feeding repellency (cottontail rabbits; whole oats treated with 0.5-2.0% anthraquinone (target; actual 4,790-19,600 ppm)) of the same compound?
**A.** 68-85%

**Q.** What about the feeding repellency (cottontail rabbits; whole oats treated with 19,600 ppm anthraquinone (target 2.0%)) of the same compound?
**A.** 85%

**Q.** What about the “less treated corn consumed than untreated corn” value (wild boar) of the same compound?
**A.** 86.5%

**Q.** And the “response to anthraquinone-treated baits” value (black rats)?
**A.** aversion

**Q.** And the repellency [2]?
**A.** 24-37%

**Q.** What about the “consumption of treated wheat relative to wheat treated only with chloroform” value (male house mice) of the same compound?
**A.** greater consumption

**Q.** What about the predicted threshold concentration (common grackles) of the same compound?
**A.** 9,200 ppm

**Q.** What about the “less treated wheat consumed than wheat treated only with chloroform” value (female common voles) of the same compound?
**A.** 47%

**Q.** What about the predicted threshold concentration (red-winged blackbirds) of the same compound?
**A.** 1,450-1,475 ppm

**Q.** And the “response to anthraquinone-treated baits” value (possums [3])?
**A.** aversion

**Q.** And the “anthraquinone dosage for observed threshold repellency” value (California voles; at 18,300 ppm anthraquinone (84% repellency), mean vole BM=38.1 g)?
**A.** 365.0±103.1 mg anthraquinone/kg BM

**Q.** What about the threshold concentration (California voles; can effectively repel voles from treated food) of the same compound?
**A.** 1.3 % (wt/wt)

**Q.** What about the predicted threshold concentration (California voles; concentration needed to achieve 80% feeding repellency, non-linear regression, treated oats) of the same compound?
**A.** about 13,400 ppm

**Q.** What about the repellency (California voles; whole oats treated with 0.25-2.0% anthraquinone (target, wt/wt; actual 2,050-18,300 ppm), test consumption (day 4) relative to pre-test consumption) of the same compound?
**A.** 24-84%

**Q.** What about the repellency (California voles; whole oats treated with 18,300 ppm anthraquinone) of the same compound?
**A.** 84%

**Q.** What about the “consumption of anthraquinone-treated baits relative to control baits” value (brown rats) of the same compound?
**A.** less

**Q.** And the “consumption of treated wheat relative to wheat treated only with chloroform” value (male common voles)?
**A.** no difference

**Q.** And the “consumption of anthraquinone-treated baits relative to control baits” value (possums [4])?
**A.** no different

**Q.** What about the predicted threshold concentration (American crows) of the same compound?
**A.** 5,200 ppm
